In US10150736B2, “Haptens and immunoreactive agents and use thereof for producing family antibodies and immunoassays for quinolones” (Consejo Superior de Investigaciones Cientificas (CSIC), priority 2010, dated 2018):
Converted amounts (≈) assume the structure as drawn.

Key:
Assay type in all cases: binding, rabbit
[1] = tested on: antibodies developed with immunoreactive agents described herein; experiment: Determination of cross-reactivity by ELISA; conditions: for % CR (cross-reactivity): (DI50 CPFX/DI50 of tested compounds)×100; for IC50: competitive ELISA, antiserum and immunoreactive agent not named
Experimental: (§1) Microtiter plates were coated with corresponding coating antigen (indirect format) or antiserum (direct format) dissolved in coating buffer (100 μL/well) overnight at 4° C. or during 4 hours at room temperature and covered with airtight adhesive plates. Subsequently, plates were washed with PBST (four times, 300 μL/well) and quinolone patters were added (0.01 nM-10000 nM, in PBST, 50 μL/well) followed by the corresponding antiserum (indirect format) or enzymatic tracer (direct format) (50 μL/well) in microtiter plates. After 30 minutes at room temperature, plates were washed as described above and, in the case of indirect format, a solution of antilgG rabbit IgG labelled with HRP (1/6000 in PBST) (100 μl/well) was added and incubated for 30 minutes at room temperature. Plates were washed again, and for both formats, substrate solution was added (100 μL/well). Color development was stopped after 30 minutes at room temperature with […] (50 μL/well), and absorbance was read at 450 nm. Standard curves were adjusted to a four parameter equation, using the following formula: Y−[(A−B)/1−[x/C)D]+B, where A represents maximum absorbance, B represents minimum absorbance, C represents the concentration producing 50% of maximum absorbance, and D represents the tangent at the inflection point of sigmoid curve.
Stock solutions were prepared at a concentration of […] for different quinolones and other antibiotics in sodium hydroxide ([…]) and measured by ELISA. Cross-reactivity values were calculated according to the equation below: (DI50 CPFX/DI50 of tested compounds)×100.

antiserum (As) 173 = experiment: Competitive ELISA for ciprofloxacin, antiserum 173, coating antigen (indirect format)
Experimental: (§2) Immunization protocol was conducted in female white rabbits from New Zealand weighing 1-2 Kg, as described previously (Salvador, Analytical Chemistry. 2007, 79, 3734-3740). Immunogens (100 μg) dissolved in PBS (0.5 mL) were emulsified with Freund's adjuvant, completely the first time and the remainder incompletely, in 1:1 ratio. They were rapidly injected intradermally in different places of the host animal back (one injection per month). Antibody titers evolution was assessed by measuring serial dilutions binding of different antiserum in microtiter plates coated with the corresponding immunoreactive agent. After observing an acceptable antibody titer, animals were bled to death and their blood was collected in Vacutainer tubes fitted with a serum separating gel. Antiserum were obtained by centrifugation and stored at −80° C. in the presence of 0.02% NaN3.
as §1, with “Plates were washed again, and for both formats, substrate solution was added (100 μL/well).” left out

antiserum (As) 171 [2] = experiment: Competitive ELISA for ciprofloxacin, antiserum 171, coating antigen (indirect format)
Experimental: as §2
as §1, with “Plates were washed again, and for both formats, substrate solution was added (100 μL/well).” left out

antiserum (As) 171 [3] = experiment: Competitive ELISA for ciprofloxacin, antiserum 171 with HRP conjugate I31 (enzymatic tracer); conditions: As 171 dilution 1/8000; IR I31 0.0625 μg/mL
Experimental: as §2, with “After observing an acceptable antibody titer, animals were bled to death and their blood was collected in Vacutainer tubes fitted with a serum separating gel. Antiserum were obtained by centrifugation and stored at −80° C. in the presence of 0.02% NaN3.” left out
Microtiter plates were coated with corresponding coating antigen (indirect format) or antiserum (direct format) dissolved in coating buffer (100 μL/well) overnight at 4° C. or during 4 hours at room temperature and covered with airtight adhesive plates. […] Color development was stopped after 30 minutes at room temperature with […] (50 μL/well), and absorbance was read at 450 nm. Standard curves were adjusted to a four parameter equation, using the following formula: Y−[(A−B)/1−[x/C)D]+B, where A represents maximum absorbance, B represents minimum absorbance, C represents the concentration producing 50% of maximum absorbance, and D represents the tangent at the inflection point of sigmoid curve.

antiserum (As) 172 = experiment: Competitive ELISA for ciprofloxacin, antiserum 172, coating antigen (indirect format)
Experimental: as §2
as §1, with “Plates were washed again, and for both formats, substrate solution was added (100 μL/well).” left out

Row | SMILES | % CR (cross-reactivity) [1] [%] | IC50 [1] [μg-L^−1] | further results
1 | CN1C[C@@H]2C[C@H]1CN2c1cc2c(cc1F)c(=O)c(C(=O)O)cn2C1CC1 [Danofloxacin] | 8 | 7.31 | 
2 | Nc1ccc(S(=O)(=O)Nc2nccs2)cc1 [Sulfathiazole] | <0.2 | >1000 | 
3 | CCn1cc(C(=O)O)c(=O)c2cc(F)c(N3CCNCC3)cc21 [Norfloxacin] | 81 | 0.78 | 
4 | CN1CCN(c2c(F)cc3c(=O)c(C(=O)O)cn4c3c2OCN4C)CC1 [Marbofloxacin] | 28 | 4.30 | 
5 | CCn1cc(C(=O)O)c(=O)c2cc3c(cc21)OCO3 [Oxolinic acid] | 4 | 23.53 | 
6 | O=C(N[C@H](CO)[C@H](O)c1ccc([N+](=O)[O-])cc1)C(Cl)Cl [Chloramphenicol] | <0.2 | >1000 | 
7 | CC1(C)S[C@@H]2[C@H](NC(=O)[C@H](N)c3ccccc3)C(=O)N2[C@H]1C(=O)O [Ampicillin] | <0.2 | >1000 | 
8 | Cc1cc(C)nc(NS(=O)(=O)c2ccc(N)cc2)n1 [Sulfamethazine] | <0.2 | >1000 | 
9 | CCN1CCN(c2cc3c(cc2F)c(=O)c(C(=O)O)cn3C2CC2)CC1 [Enrofloxacin] | 95 | 0.65 | 
10 | CC1CCc2cc(F)cc3c(=O)c(C(=O)O)cn1c23 (stereo not drawn) [Flumequine] | 22 | 3.91 | 
11 | CN1CCN(c2cc3c(cc2F)c(=O)c(C(=O)O)cn3-c2ccc(F)cc2)CC1 [Difloxacin] | 75 | 0.91 | 
12 | O=C(O)c1cn(C2CC2)c2cc(N3CCNCC3)c(F)cc2c1=O [Ciprofloxacin] | 100 | 0.77 ± 0.27 | IC50 (antiserum (As) 173; As 173 dilution 1/16000, IR I16 5 μg/mL): 0.13468 µg/mL (≈ 0.406 µM); IC50 (antiserum (As) 173; As 173 dilution 1/16000, IR I26 0.25 μg/mL): 0.00149 µg/mL (≈ 0.0045 µM); IC50 (antiserum (As) 173; As 173 dilution 1/128000, IR I19 0.0156 μg/mL): 0.04855 µg/mL (≈ 0.147 µM); IC50 (antiserum (As) 171 [2]; As 171 dilution 1/16000, IR I16 2.5 μg/mL): 0.0164 µg/mL (≈ 0.0495 µM); IC50 (antiserum (As) 171 [2]; As 171 dilution 1/16000, IR I26 0.25 μg/mL): 0.00166 µg/mL (≈ 0.00501 µM); IC50 (antiserum (As) 171 [2]; As 171 dilution 1/128000, IR I19 0.0156 μg/mL): 0.00481 µg/mL (≈ 0.0145 µM); IC50 (antiserum (As) 171 [3]): 0.00081 µg/mL (≈ 0.00244 µM); IC50 (antiserum (As) 172; As 172 dilution 1/4000, IR I16 2.5 μg/mL): 0.03839 µg/mL (≈ 0.116 µM); IC50 (antiserum (As) 172; As 172 dilution 1/4000, IR I26 0.25 μg/mL): 0.01156 µg/mL (≈ 0.0349 µM); IC50 (antiserum (As) 172; As 172 dilution 1/32000, IR I19 0.0156 μg/mL): 0.0276 µg/mL (≈ 0.0833 µM)
13 | O=C(O)c1cn(-c2ccc(F)cc2)c2cc(N3CCNCC3)c(F)cc2c1=O [Sarafloxacin] | 80 | 0.96 | 
